System: healthy participants
Assay: Phase 1 Part B multiple ascending dose (MAD): blood pressure
Assay type: in vivo, human
Details: for Mean SBP: in mmHg (unit assumed)
Description: The study was performed in 3 parts in 112 healthy male and female participants, including 24 Japanese participants. Female participants were to be not of childbearing potential. The present study was designed to evaluate the safety and tolerability, PK, and exploratory PD of an oral suspension of Compound A. Parts A and B (Cohort B1 only) enrolled healthy participants and was conducted at a site in The Netherlands and Part B (Cohort B2 to B5) enrolled healthy non-Japanese participants and was conducted at a site in the United Kingdom (UK). Part C enrolled healthy Japanese participants and was conducted at the same site in the UK.
Part B was a MAD study in a planned number of 6 sequential dose escalation cohorts (10 mg QD, 30 mg QD, 30 mg BID, 60 mg BID, 125 mg BID, and ≤250 mg BID) of 8 healthy participants (6 active+2 placebo) each, under fasted conditions. However, Cohort B6 (≤250 mg BID) was cancelled because sufficient safety and PK data had been obtained at doses up to 125 mg BID. Eligible participants received study drug (Compound A or placebo) administered orally for 14 days.
Physical examinations, vital sign measurements (including orthostasis testing in Cohort A6, Cohort B3 to B5, and C1 to C3 at selected time points), 12-lead electrocardiogram (ECG), and clinical laboratory evaluations were performed at selected times throughout the study. In addition, Holter monitoring was performed for the first 24 hours post dose on Day 1 in Part A (not in FE/pH cohort), and also for the first 24 hours post dose on Day 1 and Day 14 in Parts B and C. Participants were closely monitored for adverse events (AEs). Blood samples were collected for up to 14 days (follow-up visit) after (last) study drug administration for PK analysis. In addition, blood and urine were collected for exploratory biomarker assessments and for biobanking of samples for potential analyses. Urine was collected for potential PK analysis for up to 96 hours after a single dose of Compound A or placebo was administered in the SAD part, and for up to 24 hours after the first (morning) dose of study drug on Day 1 and for up to 24 hours after the last (morning) dose of study drug on Day 14 in the MAD parts.

In the case of `CCCN(C)C(=O)OCc1c(-c2ccc(O[C@H]3CCC[C@H](C(=O)O)C3)c(C)n2)nnn1C` [Compound A, (1S,3S)-3-((2-methyl-6-(1-methyl-5-(((methyl(propyl)carbamoyl)-oxy)methyl)-1H-1,2,3-triazol-4-yl)pyridin-3-yl)oxy)cyclohexane-1-carboxylic acid], the “Maximum of mean (±SD) reduction in DBP from baseline” value (MAD 10 mg QD (B1)) is reported as 6.8 ± 2.64 mmHg, the “Time of maximum mean DBP reduction” value (MAD 10 mg QD (B1)) is reported as 1-5 Day-h and the Mean DBP (MAD 10 mg QD, D 1 2 h) is reported as 70.2 mmHg. The “Mean SBP” value (MAD 10 mg QD, D 1 2 h) was 112.2, the Mean DBP (MAD 10 mg QD, D 1 4 h) was 65.8 mmHg and the “Mean SBP” value (MAD 10 mg QD, D 1 4 h) was 109.5. For the same molecule, the Mean DBP (MAD 10 mg QD, D 1 8 h) was 68.7 mmHg, the “Mean SBP” value (MAD 10 mg QD, D 1 8 h) was 112.8 and the Mean DBP (MAD 10 mg QD, D 2 24 h) was 65.3 mmHg. For the same molecule, the “Mean SBP” value (MAD 10 mg QD, D 2 24 h) was 108.5, the Mean DBP (MAD 10 mg QD, D 14 312 h) was 69.3 mmHg and the “Mean SBP” value (MAD 10 mg QD, D 14 312 h) was 112.8. For the same molecule, the Mean DBP (MAD 10 mg QD, D 14 314 h) was 67.5 mmHg, the “Mean SBP” value (MAD 10 mg QD, D 14 314 h) was 113.5 and the Mean DBP (MAD 10 mg QD, D 14 317 h) was 64.3 mmHg. For the same molecule, the “Mean SBP” value (MAD 10 mg QD, D 14 317 h) was 114.5, the Mean DBP (MAD 10 mg QD, D 14 320 h) was 67.5 mmHg and the “Mean SBP” value (MAD 10 mg QD, D 14 320 h) was 111.2. The Mean DBP (MAD 10 mg QD, D 15 336 h) was 66.8 mmHg, the “Mean SBP” value (MAD 10 mg QD, D 15 336 h) was 110.8 and the “Maximum of mean (±SD) reduction in DBP from baseline” value (MAD 30 mg BID (B3)) was 11.2 ± 4.58 mmHg. For the same molecule, the “Maximum of mean (±SD) reduction in SBP from baseline” value (MAD 30 mg BID (B3)) was 15.8 ± 10.19 mmHg, the “Time of maximum mean DBP reduction” value (MAD 30 mg BID (B3)) was 1-5 Day-h and the “Time of maximum mean SBP reduction” value (MAD 30 mg BID (B3)) was 1-5 Day-h. The Mean DBP (MAD 30 mg BID, D 1 2 h) was 63.3 mmHg, the “Mean SBP” value (MAD 30 mg BID, D 1 2 h) was 106.5 and the Mean DBP (MAD 30 mg BID, D 1 4 h) was 62.7 mmHg. The “Mean SBP” value (MAD 30 mg BID, D 1 4 h) was 107.2, the Mean DBP (MAD 30 mg BID, D 1 8 h) was 63.2 mmHg and the “Mean SBP” value (MAD 30 mg BID, D 1 8 h) was 106.3. For the same molecule, the Mean DBP (MAD 30 mg BID, D 2 24 h) was 66.7 mmHg, the “Mean SBP” value (MAD 30 mg BID, D 2 24 h) was 114.7 and the Mean DBP (MAD 30 mg BID, D 14 312 h) was 68.7 mmHg. For the same molecule, the “Mean SBP” value (MAD 30 mg BID, D 14 312 h) was 119.7, the Mean DBP (MAD 30 mg BID, D 14 314 h) was 63.8 mmHg and the “Mean SBP” value (MAD 30 mg BID, D 14 314 h) was 109.7. For the same molecule, the Mean DBP (MAD 30 mg BID, D 14 317 h) was 61 mmHg, the “Mean SBP” value (MAD 30 mg BID, D 14 317 h) was 114.3 and the “Mean SBP” value (MAD 30 mg BID, D 14 320 h) was 110.0. The Mean DBP (MAD 30 mg BID, D 15 336 h) was 65.3 mmHg, the “Mean SBP” value (MAD 30 mg BID, D 15 336 h) was 116.3 and the “Maximum of mean (±SD) reduction in DBP from baseline” value (MAD 30 mg QD (B2)) was 8.8 ± 4.62 mmHg. The “Maximum of mean (±SD) reduction in SBP from baseline” value (MAD 30 mg QD (B2)) was 10.7 ± 7.06 mmHg, the Mean DBP (MAD 30 mg QD, D 1 2 h) was 66.5 mmHg and the “Mean SBP” value (MAD 30 mg QD, D 1 2 h) was 104.8. For the same molecule, the Mean DBP (MAD 30 mg QD, D 1 4 h) was 67.8 mmHg, the “Mean SBP” value (MAD 30 mg QD, D 1 4 h) was 102.3 and the Mean DBP (MAD 30 mg QD, D 1 8 h) was 66 mmHg. The “Mean SBP” value (MAD 30 mg QD, D 1 8 h) was 107.2, the Mean DBP (MAD 30 mg QD, D 2 24 h) was 67.3 mmHg and the “Mean SBP” value (MAD 30 mg QD, D 2 24 h) was 114.3. For the same molecule, the Mean DBP (MAD 30 mg QD, D 14 312 h) was 63.3 mmHg, the “Mean SBP” value (MAD 30 mg QD, D 14 312 h) was 110.0 and the Mean DBP (MAD 30 mg QD, D 14 314 h) was 63.5 mmHg. The “Mean SBP” value (MAD 30 mg QD, D 14 314 h) was 101.7, the Mean DBP (MAD 30 mg QD, D 14 317 h) was 61.8 mmHg and the “Mean SBP” value (MAD 30 mg QD, D 14 317 h) was 102.3. The Mean DBP (MAD 30 mg QD, D 14 320 h) was 63.2 mmHg, the “Mean SBP” value (MAD 30 mg QD, D 14 320 h) was 101.5 and the Mean DBP (MAD 30 mg QD, D 15 336 h) was 62.3 mmHg. The “Mean SBP” value (MAD 30 mg QD, D 15 336 h) was 107.3, the “Maximum of mean (±SD) reduction in DBP from baseline” value (MAD 60 mg BID (B4)) was 8.3 ± 6.89 mmHg and the “Maximum of mean (±SD) reduction in SBP from baseline” value (MAD 60 mg BID (B4)) was 17.5 ± 11.31 mmHg. The “Time of maximum mean DBP reduction” value (MAD 60 mg BID (B4)) was 3-4 Day-h, the Mean DBP (MAD 60 mg BID, D 1 2 h) was 64.5 mmHg and the “Mean SBP” value (MAD 60 mg BID, D 1 2 h) was 110.2. The Mean DBP (MAD 60 mg BID, D 1 4 h) was 66 mmHg, the “Mean SBP” value (MAD 60 mg BID, D 1 4 h) was 106.7 and the Mean DBP (MAD 60 mg BID, D 1 8 h) was 64.7 mmHg. The “Mean SBP” value (MAD 60 mg BID, D 1 8 h) was 109.3, the Mean DBP (MAD 60 mg BID, D 2 24 h) was 65.7 mmHg and the “Mean SBP” value (MAD 60 mg BID, D 2 24 h) was 118.8. For the same molecule, the Mean DBP (MAD 60 mg BID, D 14 312 h) was 64.8 mmHg, the “Mean SBP” value (MAD 60 mg BID, D 14 312 h) was 111.8 and the Mean DBP (MAD 60 mg BID, D 14 314 h) was 64 mmHg. For the same molecule, the “Mean SBP” value (MAD 60 mg BID, D 14 314 h) was 110.5, the Mean DBP (MAD 60 mg BID, D 14 317 h) was 62.5 mmHg and the “Mean SBP” value (MAD 60 mg BID, D 14 317 h) was 114.8. The Mean DBP (MAD 60 mg BID, D 14 320 h) was 63 mmHg, the “Mean SBP” value (MAD 60 mg BID, D 14 320 h) was 115.5 and the Mean DBP (MAD 60 mg BID, D 15 336 h) was 64.5 mmHg. The “Mean SBP” value (MAD 60 mg BID, D 15 336 h) was 114.5, the “Maximum of mean (±SD) reduction in DBP from baseline” value (MAD 125 mg BID (B5)) was 14.7 ± 5.68 mmHg and the “Maximum of mean (±SD) reduction in SBP from baseline” value (MAD 125 mg BID (B5)) was 14.5 ± 5.86 mmHg. The “Time of maximum mean DBP reduction” value (MAD 125 mg BID (B5)) was 12-12 Day-h, the Mean DBP (MAD 125 mg BID, D 1 2 h) was 62.3 mmHg and the “Mean SBP” value (MAD 125 mg BID, D 1 2 h) was 112.2. The Mean DBP (MAD 125 mg BID, D 1 4 h) was 64.7 mmHg, the “Mean SBP” value (MAD 125 mg BID, D 1 4 h) was 112.2 and the Mean DBP (MAD 125 mg BID, D 1 8 h) was 64.7 mmHg. The “Mean SBP” value (MAD 125 mg BID, D 1 8 h) was 107.3, the Mean DBP (MAD 125 mg BID, D 2 24 h) was 66.3 mmHg and the “Mean SBP” value (MAD 125 mg BID, D 2 24 h) was 118.8. For the same molecule, the Mean DBP (MAD 125 mg BID, D 14 312 h) was 62 mmHg, the “Mean SBP” value (MAD 125 mg BID, D 14 312 h) was 111.3 and the Mean DBP (MAD 125 mg BID, D 14 314 h) was 65 mmHg. For the same molecule, the “Mean SBP” value (MAD 125 mg BID, D 14 314 h) was 116.0, the Mean DBP (MAD 125 mg BID, D 14 317 h) was 59.2 mmHg and the “Mean SBP” value (MAD 125 mg BID, D 14 317 h) was 116.3. The Mean DBP (MAD 125 mg BID, D 14 320 h) was 61.8 mmHg, the “Mean SBP” value (MAD 125 mg BID, D 14 320 h) was 114.5 and the Mean DBP (MAD 125 mg BID, D 15 336 h) was 63 mmHg. The “Mean SBP” value (MAD 125 mg BID, D 15 336 h) was 111.3, the “BP reductions versus placebo” value (MAD BID groups) was “no clear differences between placebo and the Compound A groups” and the “Dose dependence of mean SBP and DBP reductions” value (MAD QD groups) was “reductions generally occurred in a Compound A dose-dependent manner”.

From patent US20240216352A1 (priority 2022, published 2024)
